These results are taken from patent US9415049B2, “Heteroaryl compounds and uses thereof” (Celgene Avilomics Research, Inc., priority 2013, dated 2016).

As a reminder, the IC50 is the concentration that inhibits the measured activity by half.

A value given as a limit tells only on which side of the number the result lay.

The target in the test is human recombinant full-length Btk enzyme (Homo sapiens, UniProt Q06187). The test can be described thus: Omnia Continuous Read Kinase Assay, Btk inhibition. Particulars: 30 minutes pre-incubation at 27° C.; 0.5 nM to 10 μM. Format: biochemical. On the set-up: human recombinant full-length Btk enzyme. The text has this:
The following Example describes testing certain compounds according to the invention for inhibition of BTK activity. The Omnia® Continuous Read Kinase Assay uses an unnatural amino acid chelation enhanced fluorophore (Sox; 8-hydroxy-5-(N,N-dimethylsulfonamido)-2 methylquinoline) incorporated into a kinase-specific peptide substrate to characterize Btk enzyme kinetics and inhibition. Following Btk-mediated phosphorylation, a sensitive, highly quantifiable increase in real-time fluorescence is noted based upon the ability of chelated Mg2+ to form a bridge between Sox and the phosphate group on a tyrosine residue of the peptide substrate. The Omnia® continuous read assay was performed essentially as described by the vendor (Invitrogen; Carlsbad, Calif.). First, a 10× stock of human recombinant full-length Btk enzyme was prepared in Kinase Reaction Buffer. 5 μL of the 10× enzyme was pre-incubated with 0.5 μL of serially diluted compound prepared in 50% DMSO, in a 384-well microtiter plate for 30 minutes at 27° C. 1.13×ATP and the Tyr5-Sox conjugated peptide substrate were prepared in 1× Kinase Reaction Buffer. Kinase reactions were initiated by the addition of 45 μL of the 1.13×ATP-Sox peptide substrate master mix and monitored every 30 to 90 seconds for 60 minutes at λex360/λem485 in a Synergy plate reader. The IC50 values for each compound assayed were determined from test concentrations of 0.5 nM to 10 μM in half-log intervals performed in duplicate.
At the conclusion of each assay, progress curves from each well were examined for linear reaction kinetics and fit statistics (R2, 95% confidence interval, absolute sum of squares) using GraphPad software (GraphPad Prism version 5.01; San Diego, Calif.). Initial velocity (0 minutes to ˜30+ minutes) from each reaction was determined from the slope of a plot of relative fluorescence units versus time (minutes). Using control normalized % inhibition data, plots were constructed against inhibitor concentration to estimate IC50 from log [inhibitor] versus response using a variable slope model in GraphPad. The compound numbers correspond to the compound numbers in Table 1.

Chain of human recombinant full-length Btk enzyme (Q06187 whole entry): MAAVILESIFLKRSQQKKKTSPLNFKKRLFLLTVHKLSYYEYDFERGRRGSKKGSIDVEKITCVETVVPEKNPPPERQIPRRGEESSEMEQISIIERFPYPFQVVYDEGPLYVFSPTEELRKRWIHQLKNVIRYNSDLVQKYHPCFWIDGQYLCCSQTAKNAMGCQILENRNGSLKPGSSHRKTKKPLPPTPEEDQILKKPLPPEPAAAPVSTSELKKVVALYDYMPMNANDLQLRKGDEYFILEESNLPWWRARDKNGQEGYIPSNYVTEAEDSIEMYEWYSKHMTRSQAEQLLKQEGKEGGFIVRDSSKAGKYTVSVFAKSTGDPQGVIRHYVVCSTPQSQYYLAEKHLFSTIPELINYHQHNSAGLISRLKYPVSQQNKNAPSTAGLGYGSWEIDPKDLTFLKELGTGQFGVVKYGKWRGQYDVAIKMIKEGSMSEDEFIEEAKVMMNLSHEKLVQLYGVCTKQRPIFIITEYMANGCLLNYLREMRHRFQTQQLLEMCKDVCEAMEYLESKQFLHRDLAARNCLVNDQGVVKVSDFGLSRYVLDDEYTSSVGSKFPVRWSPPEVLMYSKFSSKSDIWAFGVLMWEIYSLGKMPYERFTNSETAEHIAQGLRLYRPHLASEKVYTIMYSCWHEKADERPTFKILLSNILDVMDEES

Consider `C=CC(=O)Nc1cccc(Nc2nc(Nc3ccc(OCCOC)cc3O)ncc2F)c1` [Compound I-14, N-(3-((5-fluoro-2-((2-hydroxy-4-(2-methoxyethoxy)phenyl)amino)pyrimidin-4-yl)amino)phenyl)acrylamide], for which the half-maximal inhibitory concentration (IC50) was not above 10 nM.

With `C=CC(=O)Nc1ccc(O)c(Nc2nc(Nc3ccc(OCCOC)cc3)ncc2F)c1` [Compound I-15, N-(3-((5-fluoro-2-((4-(2-methoxyethoxy)phenyl)amino)pyrimidin-4-yl)amino)-4-hydroxyphenyl)acrylamide], the IC50 was in the range of 11 to 100 nM.

In the case of `C=CC(=O)Nc1cc(O)cc(Nc2nc(Nc3ccc(OCCOC)cc3)ncc2F)c1` [Compound I-16, N-(3-((5-fluoro-2-((4-(2-methoxyethoxy)phenyl)amino)pyrimidin-4-yl)amino)-5-hydroxyphenyl)acrylamide], the IC50 was not above 10 nM.

Turning to `C=CC(=O)Nc1cc(Nc2nc(Nc3ccc(OCCOC)cc3)ncc2F)ccc1O` [Compound I-17, N-(5-((5-fluoro-2-((4-(2-methoxyethoxy)phenyl)amino)pyrimidin-4-yl)amino)-2-hydroxyphenyl)acrylamide], the IC50 is not above 10 nM.

With `C=CC(=O)Nc1cccc(Nc2nc(N(C)c3ccc(OCCO)cc3)ncc2F)c1` [Compound I-25, N-(3-((5-fluoro-2-((4-(2-hydroxyethoxy)phenyl)(methyl)amino)pyrimidin-4-yl)amino)phenyl)acrylamide], the IC50 lay within 101 to 500 nM.

In the case of `COCCOc1ccc(Nc2ncc(F)c(Nc3cccc(NC(=O)CCO)c3)n2)cc1` [Compound I-26, N-(3-((5-fluoro-2-((4-(2-methoxyethoxy)phenyl)amino)pyrimidin-4-yl)amino)phenyl)-3-hydroxypropanamide], the IC50 was more than 501 nM.

As to `COCCOc1ccc(Nc2ncc(F)c(Nc3cccc(N4OCCC4=O)c3)n2)cc1` [Compound I-27], the IC50 was 101 to 500 nM.
